Reference: patent US12378249B2, “Isoquinoline compounds and uses thereof” (Genentech, Inc., priority 2018, dated 2025)

Target: HPK1 (Homo sapiens (Human), UniProt Q92918, S171E/T165E)
Assay: HPK1-FL HTRF Enzymatic Assay (HTRF)
Type: biochemical
Settings: HPK full length T165E S171E 0.125 nM, ATP 1 mM, Biotin-SLP76 100 nM, read-out: HPK1 Ki (nM), H = HTRF
Method in brief: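 Ki derived from % activity calculated from the TR-FRET 665/620 ratio, using Eu-anti-pSLP76 and SA-XL665 detection added for 60 min. Reaction: compound preincubated 30 min with full-length double-mutant HPK1, then 60 min with Biotin-SLP-76 and 1 mM ATP, pH 7.5 HEPES buffer.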

HPK1, sequence (Q92918 whole entry T165E/S171E): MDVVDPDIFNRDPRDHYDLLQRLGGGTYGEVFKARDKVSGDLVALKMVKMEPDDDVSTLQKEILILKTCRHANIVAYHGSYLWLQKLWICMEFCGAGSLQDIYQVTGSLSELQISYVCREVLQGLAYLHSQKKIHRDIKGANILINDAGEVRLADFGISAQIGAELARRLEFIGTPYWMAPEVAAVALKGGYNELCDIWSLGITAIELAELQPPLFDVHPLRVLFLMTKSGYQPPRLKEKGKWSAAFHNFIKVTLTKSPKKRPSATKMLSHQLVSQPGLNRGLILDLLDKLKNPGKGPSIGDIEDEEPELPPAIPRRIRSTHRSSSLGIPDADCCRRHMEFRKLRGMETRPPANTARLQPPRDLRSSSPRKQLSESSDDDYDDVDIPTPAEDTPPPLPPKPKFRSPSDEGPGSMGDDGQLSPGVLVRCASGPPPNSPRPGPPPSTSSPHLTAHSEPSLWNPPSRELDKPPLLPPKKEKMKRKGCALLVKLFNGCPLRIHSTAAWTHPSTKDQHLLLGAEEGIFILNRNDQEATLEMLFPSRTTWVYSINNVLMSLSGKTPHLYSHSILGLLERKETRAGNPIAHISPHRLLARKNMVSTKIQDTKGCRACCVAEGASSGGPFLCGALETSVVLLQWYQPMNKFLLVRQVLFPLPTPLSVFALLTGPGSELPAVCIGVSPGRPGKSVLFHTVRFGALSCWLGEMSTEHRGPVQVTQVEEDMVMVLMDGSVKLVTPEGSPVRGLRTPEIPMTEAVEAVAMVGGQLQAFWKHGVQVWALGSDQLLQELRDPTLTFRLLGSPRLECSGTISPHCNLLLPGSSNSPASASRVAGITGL

| Ki [nM] | SMILES |
| --- | --- |
| 0.034 | Cc1c(-c2ccc3cnc(Nc4cc5n(n4)CC(=O)N(CCO)CC5)cc3c2F)cnc2c1NCCO2 [Compound 146, 2-((5-fluoro-6-(8-methyl-2,3-dihydro-1H-pyrido[2,3-b][1,4]oxazin-7-yl)isoquinolin-3-yl)amino)-6-(2-hydroxyethyl)-5,6-dihydro-4H-pyrazolo[1,5-d][1,4]diazepin-7(8H)-one] |
| 0.013 | Cc1c(-c2cc3cc(Nc4cc5n(n4)Cc4nncn4CC5)ncc3cc2F)cnc2c1NCCO2 [Compound 151, N-(7-fluoro-6-(8-methyl-2,3-dihydro-1H-pyrido[2,3-b][1,4]oxazin-7-yl)isoquinolin-3-yl)-5,6-dihydro-11H-pyrazolo[1,5-d][1,2,4]triazolo[4,3-a][1,4]diazepin-8-amine] |
| 0.028 | Cc1c(N)cncc1-c1ccc2cnc(Nc3cc4n(n3)CC(=O)N(C(C)C)CC4)cc2c1Cl [Compound 152, 2-((6-(5-amino-4-methylpyridin-3-yl)-5-chloroisoquinolin-3-yl)amino)-6-isopropyl-5,6-dihydro-4H-pyrazolo[1,5-d][1,4]diazepin-7(8H)-one] |
| 0.013 | COCCN1CCc2cc(Nc3cc4cc(-c5cnc6c(c5C)NCCO6)c(F)cc4cn3)nn2CC1=O [Compound 155, 2-((7-fluoro-6-(8-methyl-2,3-dihydro-1H-pyrido[2,3-b][1,4]oxazin-7-yl)isoquinolin-3-yl)amino)-6-(2-methoxyethyl)-5,6-dihydro-4H-pyrazolo[1,5-d][1,4]diazepin-7(8H)-one] |

The next lines start with the molecule.

| SMILES | Ki [nM] |
| --- | --- |
| Cc1c(N)cncc1-c1cc2cc(Nc3cc4n(n3)CC(=O)N(CCN3CCOCC3)CC4)ncc2cc1F [Compound 136, 2-((6-(5-amino-4-methylpyridin-3-yl)-7-fluoroisoquinolin-3-yl)amino)-6-(2-morpholinoethyl)-5,6-dihydro-4H-pyrazolo[1,5-d][1,4]diazepin-7(8H)-one] | 0.028 |
| COc1cc(C)c(-c2cc3cc(Nc4cc5n(n4)CC(=O)N(C)CC5)ncc3cc2F)cn1 [Compound 137, 2-((7-fluoro-6-(6-methoxy-4-methylpyridin-3-yl)isoquinolin-3-yl)amino)-6-methyl-5,6-dihydro-4H-pyrazolo[1,5-d][1,4]diazepin-7(8H)-one] | 2.2 |
| Cc1c(-c2cc3cc(Nc4cc5n(n4)CC(=O)N(C)CC5)ncc3c(F)c2F)cnc2c1NCCO2 [Compound 138, 2-((7,8-difluoro-6-(8-methyl-2,3-dihydro-1H-pyrido[2,3-b][1,4]oxazin-7-yl)isoquinolin-3-yl)amino)-6-methyl-5,6-dihydro-4H-pyrazolo[1,5-d][1,4]diazepin-7(8H)-one] | 0.013 |
| Cc1c(-c2cc3cc(Nc4cc5n(n4)CC(=O)N(C(C)C)CC5)ncc3cc2F)cnc2oc(=O)[nH]c12 [Compound 142, 6-(7-fluoro-3-((6-isopropyl-7-oxo-5,6,7,8-tetrahydro-4H-pyrazolo[1,5-d][1,4]diazepin-2-yl)amino)isoquinolin-6-yl)-7-methyloxazolo[5,4-b]pyridin-2(1H)-one] | 1.9 |
| Cc1c(-c2cc3cc(Nc4cc5n(n4)Cc4nccn4CC5)ncc3cc2F)cnc2c1NCCO2 [Compound 143, N-(7-fluoro-6-(8-methyl-2,3-dihydro-1H-pyrido[2,3-b][1,4]oxazin-7-yl)isoquinolin-3-yl)-5,6-dihydro-11H-imidazo[1,2-a]pyrazolo[1,5-d][1,4]diazepin-8-amine] | 0.013 |
| Cc1c(N)cncc1-c1cc2cc(Nc3cc4n(n3)CC(=O)NCC4)ncc2cc1F [Compound 144, 2-((6-(5-amino-4-methylpyridin-3-yl)-7-fluoroisoquinolin-3-yl)amino)-5,6-dihydro-4H-pyrazolo[1,5-d][1,4]diazepin-7(8H)-one] | 0.062 |
| Cc1c(-c2cc3cc(Nc4cc5n(n4)CC(=O)N(CCO)CC5)ncc3cc2F)cnc2c1NCCO2 [Compound 145, 2-((7-fluoro-6-(8-methyl-2,3-dihydro-1H-pyrido[2,3-b][1,4]oxazin-7-yl)isoquinolin-3-yl)amino)-6-(2-hydroxyethyl)-5,6-dihydro-4H-pyrazolo[1,5-d][1,4]diazepin-7(8H)-one] | 0.013 |
